The values that follow come from a melting point compilation (Tetko et al.; mined from patent text by program, amines drawn as free bases though some values may be those of a salt).

As a reminder, the melting point is the temperature, or range, at which the solid turns liquid.

Regarding `CC(C)CCCC(C)C1CCC2C3CC=C4CC(OC(=O)C(C)(C)CO)CCC4(C)C3CCC12C` (stereo not given), the melting point was in the range of 174 to 176 °C.
With `Cc1ncc2cccc(O)c2n1`, the melting point was 135 to 137 °C.
In the case of `CC(C)c1nc(CC#N)n(C)c1Sc1cc(Cl)cc(Cl)c1` it was 103 to 105 °C; in that of `O=C(O)Cc1ccc(Cc2nc3c(F)c(F)cc(F)c3s2)cc1`, 173 to 175 °C.
Turning to `CC(O)=C(C#N)CC(=O)Nc1ccc(NC(=O)CBr)cc1`, the melting point was over 210 °C.
Then `CC1(Cl)C(=S)Nc2ccc(Cl)cc21` (stereo not given), with 248 to 251 °C; and `CCCc1nn(-c2ccc(C(F)(F)F)cn2)cc1CCCOc1ccccc1CCC(=O)O`, with 87 to 88 °C; and `CCOC(=O)C(C(=O)C(C)C)C(CC(=O)C(C)(C)C)c1ccc(F)cc1` (stereo not given), with 80 to 89 °C.
Then `CCOc1nc(NCc2ccco2)nc(Nc2ccc3c(c2)ncn3C)n1`, with 105 to 107 °C; and `CCc1cn(C2OC(CNC(=O)C(C)Oc3c(Cl)cc(Cl)c(OC)c3Cl)C(O)C2F)c(=O)[nH]c1=O` (stereo not given), with 210 to 211 °C; and `CCC(NC(=O)c1ccccc1)C(=O)OC1CCCCC1` (stereo not given), with 60 to 63 °C.
With `O=Cc1c(Cl)ccc(F)c1Cl`, the melting point is 63 to 65 °C.
Then `CCCCN(Cc1ccc(-c2ccccc2-c2nnn[nH]2)cc1)c1ncccc1CNC(C)=O`, with 108 to 110 °C; and `CCN1C(=O)C(=O)N(c2ccc(Cl)cc2C)C1=S`, with 161 to 162 °C; and `C=C1C(=O)c2ccccc2OC1c1ccc([N+](=O)[O-])cc1` (stereo not given), with 135 to 136 °C.
The compound `O=C(Nc1cccc2[nH]ccc12)c1ccccc1OCCCNC1CCCCC1` showed a melting point of 148 °C.
Then `COc1ccc(C(=C(c2ccc(C#N)cc2)n2ccnc2)c2ccc(OC)cc2)cc1`, with 174 to 176 °C; and `Oc1ccc2c(c1O)OCC(c1cccc(F)c1)C2` (stereo not given), with 148 to 149 °C; and `O=C(O)c1ccccc1-c1ccc(C(=O)N2Cc3ccc(C(=O)NCc4cccnc4)n3Cc3ccccc32)cc1`, with 189 to 191 °C.
Regarding `CCCOc1oc(=O)c2cc(NC(=O)NCC)ccc2c1Cl`, the melting point lay within 189 to 191 °C.
As to `CCC(=O)NN(C(C)=O)[C@@H]1c2cc(C#N)ccc2OC(C)(C)[C@H]1O` (relative stereo), the melting point is 201 to 203 °C.
In the case of `O=C1CN(c2ccccc2)C(=O)N1CCBr` it was 146 to 147 °C.
Then `CCn1c(=O)c2c(nc(/C=C/c3cccc(OC)c3OC(C)=O)n2C)n(CC)c1=O`, with 202 to 203 °C; and `O=C(c1ccccc1F)c1cccc2c1N(C(=O)CBr)CC2`, with 136 °C.
Then `O=C(O)CCCc1cc2nc(Cl)ccc2n1S(=O)(=O)c1ccc2snnc2c1`, with 227 °C.
`Cc1ccccc1C(=O)n1ccc(-c2ccc(C(=O)N3Cc4cccn4Cc4ccccc43)cc2)n1` displayed a melting point of 170 to 173 °C.
Then `COc1cc2oc(=O)cc(CN3CCC(OC)CC3)c2cc1OC`, with 148 to 150 °C.
In the case of `CCCc1c(OCCCCCOc2ccc(C(=O)Cc3ccccc3C(=O)O)cc2CCC(=O)O)ccc2c1OCCC2=O`, the melting point was in the range of 178 to 182 °C.
In turn, `Cn1ncc2c1-c1cn[nH]c1CC2` returned a melting point of 180 to 186 °C.
Then `Cc1ccnc(C(=O)n2cc(CC(=O)O)c3cc(C)ccc32)c1`, with 220 to 226 °C.
On to `CCc1cccc(-c2ccc(S(=O)(=O)N3c4ccccc4CC3C(=O)O)cc2)c1` (stereo not given), for which the melting point lay within 70 to 72 °C.
In the case of `O=C(Cc1ccccc1)Nc1n[nH]c(-c2ccc(F)cc2)c1-c1ccncc1` it was 289 to 290 °C; in that of `CC(=O)NC[C@H]1CN(c2ccc(C(=O)c3cnc4c(OCc5ccccc5)cccn34)cc2)C(=O)O1`, 193 to 195 °C; in that of `Fc1cc2c(c(-c3c(Cl)cccc3Cl)c1)OC(CN1CCCC1)C2` (stereo not given), 65 to 67 °C.
On to `COC(=O)c1cc(C(C)(C)C)c(O[Si](C)(C)Oc2c(C(C)(C)C)cc(C(=O)OC)cc2C(C)(C)C)c(C(C)(C)C)c1`, for which the melting point lay within 197 to 198 °C.
`CCOC(=O)c1[nH]c(CC)c(CC)c1C` returned a melting point of 71 to 73 °C.
Then `Cn1ncc(/C=C/C(=O)Nc2ccc(CCc3nccs3)cc2)c1-c1ccc(F)cc1`, with 201 to 202 °C; and `O=c1[nH]c2cc(-n3cnc4ccccc43)c([N+](=O)[O-])cc2[nH]c1=O`, with over 300 °C; and `O=Cc1c[nH]c2c1ccc1c3cc(Br)ccc3[nH]c12`, with over 250 °C.
The compound `CC(O)(Cc1ccccc1)CN1CCC2(CC1)CSC1=C(O2)c2ccccc2C(=O)C1=O` (stereo not given) returned a melting point of 186 to 187 °C.
In the case of `CCNc1nc(NC(C)C)cc(NS(=O)(=O)c2ccc(N)cc2)n1` it was 258 to 259 °C; in that of `CCOC(=O)Nc1cc([N+](=O)[O-])cc(CC)c1C(=O)O`, 121 to 123 °C; in that of `COC(=O)C(O)=CC(=O)c1ncnc2c1ncn2Cc1ccccc1`, 166 to 167 °C.
As to `CCOC(=O)c1ncn2c1c(=O)n(CC)c1ncccc12`, the melting point lay within 216 to 217 °C.
For `CC(=Cc1ccc2ccc3cccc4ccc1c2c34)c1ccc(Cl)cc1`, the melting point lay in the range of 162 to 164 °C.
Then `N#Cc1cnc2cc(-c3ccc(C=O)cc3)sc2c1Cl`, with 300 to 305 °C; and `C=C(C)C(=O)OCCNC(=O)Nc1nc(=O)cc(C)[nH]1`, with 208 °C.
Then `C=CCn1c(C)nc2c3c(ccc21)[C@@H](OCCF)[C@H](OC(=O)C(C)(C)C)[C@@H](c1ccccc1)O3`, with 119 °C; and `N#CCCNC(=O)c1cccc(-c2ccc3occ(-c4ccc(Cl)cc4Cl)c3c2)c1`, with 159 to 161 °C.
As to `Cc1ccccc1-c1c(Cn2cnc3c(N)ncnc32)oc2ccc(Br)cc2c1=O`, the melting point lay within 252 to 255 °C.
The compound `CCCCCn1c2ccc(C(=O)NN3CCCCC3)cc2c2ccc(OC)cc21` gave a melting point of 178 to 179 °C.
`CCOC(=O)CCC(CC(=O)c1ccc(N)cc1)C(=O)OCC` (racemic) yielded a melting point of 58 to 61 °C.
Compound `O=c1[nH][nH]c(=O)n1-c1ccc(Cl)cc1` showed a melting point of 234 to 236 °C.
Then `CCCCCCCCCCCCCCOc1cccc(C(=O)N(CC(=O)O)CC(=O)O)c1`, with 96 to 99 °C.
In the case of `CS(=O)(=O)Nc1cccc(Nc2nc(NCc3cccc(N)c3)c3nc[nH]c3n2)c1` it was 170 to 173 °C; in that of `NC(=O)c1cc(-n2c(-c3ccccc3)cc3c2CCc2ccccc2-3)ccc1O`, 213 to 215 °C.
`COc1ccc(-c2nc3cc(F)ccc3s2)cc1OC(=O)c1ccccc1`: the melting point worked out at 160 °C.
`O=C1c2ccccc2C(=O)N1Cc1ccc(Cl)nc1`: the melting point is 142 to 143 °C.
In the case of `CC1(C)OC=C(CS(=O)(=O)c2ccc(F)cc2)C1=O` it was 159 to 160 °C.
Then `C=C(C)C(=O)OCC(COC(=O)C(=C)C)Cc1ccc(-c2ccc(OC(=O)C(=C)C)cc2)cc1`, with 49 °C.
Then `COC[C@@H](NC(=O)c1nn(-c2ccc(F)cc2F)c2c1C1CCC2C1)c1ccc(F)cc1` (stereo not given in full), with 109 to 111 °C.
The compound `CC(=O)OC1CSC(Oc2cncc(-c3c(F)cc(F)cc3F)c2)C(OC(C)=O)C1OC(C)=O` (stereo not given) registered a melting point of 143 °C.
For `CN(C)c1cccc(NC(=S)NN=Cc2ccc(-c3ncn(-c4ccc(OC(F)(F)F)cc4)n3)cc2)c1`, the melting point was 192 to 194 °C.
Then `CNC(=O)[C@@H](NC(=O)[C@@H](CC(=O)OCc1ccccc1)n1ccc(-c2ccc(-c3ccc(C#N)cc3)cc2)c1)C(C)(C)C`, with 120 °C; and `C[C@@H]1C[C@](C)(O)[C@H](C)N1c1ccc(C#N)c(Cl)c1`, with 132 to 133 °C; and `Cc1nc(C(O)(c2nc(C)c(C)s2)C(C)C)sc1C`, with 169 to 171 °C.
Then `CCCn1nc(C(C)C)cc1Cc1ccc(-c2ccccc2-c2nnn[nH]2)cc1`, with 147 to 149 °C; and `COc1cc2c(Nc3ccc(Sc4nccn4C)c(Cl)c3)c(C#N)cnc2cc1N1CCC(N2CCCC2)CC1`, with 225 to 229 °C; and `CC(C)(C)OC(=O)[C@H]1C[C@@H](S(=O)(=O)c2ccccc2F)[C@@H](c2ccccc2F)N1` (racemic), with 202 °C.
`C=C(c1ccc(Cl)cc1)c1ccc(NC(=O)c2cc(I)cc(I)c2O)cc1Cl` showed a melting point of 171 to 175 °C.
As to `CC1Cc2cc3c(cc2C(C=Cc2ccc(N)cc2)=NN1)OCO3` (stereo not given), the melting point lay in the range of 159 to 161 °C.
Then `S=c1[nH]c(-c2ccc(Br)cc2)c(-c2ccc(Br)cc2)[nH]1`, with 288 °C.
In turn, `Cc1ccc(COc2ccc(C=C3CCCCC3=O)cc2)cc1` had a melting point of 148 to 149 °C.
In the case of `O=S(c1ccccc1-c1ccccc1)C(F)(F)F` (stereo not given) it was 57 to 58 °C.
`N#Cc1ccc(-c2ccc(Cl)cc2Cl)c(F)c1`: the melting point lay within 65 to 67 °C.
In the case of `CC(C)c1nc(-c2ccc(-c3cnc4[nH]c(=O)n(CC5CCOCC5)c4n3)cc2)n[nH]1` it was 305 to 308 °C; in that of `CC(C)(C)OC(=O)N1CCc2[nH]c3cccc(Br)c3c2CC1`, 223 to 225 °C; in that of `COc1cc(C=CC(=O)C=Cc2cc(OC)c(OC)c(OC)c2)cc(OC)c1OC`, 45 to 47 °C.
In the case of `COc1ccc(Br)c2c1CC(NC(C1CC1)C1CC1)CC2` (single isomer, unassigned; (-)) it was 153 to 154 °C; in that of `CCC(=O)Oc1ccc(/C=C/C=C/C(=O)NCCN2CCC(c3c[nH]c4ccccc34)CC2)cc1OC`, 157 to 158 °C.
In the case of `COCCc1nc2c(N)nc3c(c2n1CCCNC(=O)N1CCOCC1)CCCC3` it was 172 to 173 °C.
In turn, `O=C(O)c1ccccc1Nc1ccc(O)c(Cl)c1` yielded a melting point of 180 to 183 °C.
Then `O=C(C(=O)c1cccc(Br)c1)c1ccncc1`, with 88 to 90 °C; and `COc1cc2cc3c(Nc4ccc(F)c(Cl)c4)c(C#N)cnc3cc2cc1OCCCl`, with 137 to 159 °C; and `CN1C(=O)C(c2cccc(-c3cccnc3F)c2)(c2cnn(CC(F)(F)F)c2)N=C1N` (stereo not given), with 104 to 106 °C.
